Values of other authors in patent US20190269715A1, “COMPOSITIONS AND METHOD OF USE OF A-TYPE PROCYANIDINS” (MARS, INCORPORATED, priority 2004, published 2019).

System: tumor
Details: cited from earlier work

For Nobotanin, the anti-tumor activity is given as “anti-tumor activity”.
